# Reference: PubChem BioAssay AID330 (DTP/NCI, 2004)
# “And” between values parts separate entries of the source, which are not always exact repeats. Identical values can stand only once. Toxic doses and inconclusive results are not listed. Peptide text beside a SMILES is read from it.
# Test system: P388 leukemia ip, CD2F1 mice, survival T/C
# Assay: NCI In Vivo Anticancer Drug Screen. Data for tumor model P388 Leukemia (intraperitoneal) in CD2F1 (CDF1) mice
# Details: endpoint: median survival time, higher = longer survival
# Procedure, shortened: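 Mice carrying the transplanted tumor received test compound or vehicle. Survival was recorded in each group, and the value is the treated-group measurement divided by that of the vehicle-treated control group.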
# [1] = dose: 50.0 mg/kg/injection, schedule: Q01DX009 (ip), vehicle: saline with Tween-80
# [2] = dose: 100.0 mg/kg/injection, schedule: Q01DX009 (ip), vehicle: saline with Tween-80
# [3] = dose: 200.0 mg/kg/injection, schedule: Q01DX009 (ip), vehicle: saline with Tween-80
# [4] = dose: 60.0 mg/kg/injection, schedule: Q01DX005 (ip), vehicle: saline with Tween-80
# [5] = dose: 120.0 mg/kg/injection, schedule: Q01DX005 (ip), vehicle: saline with Tween-80
# [6] = dose: 100.0 mg/kg/injection, schedule: Q04DX002 (ip), vehicle: Klucel (hydroxypropylcellulose) (HPC)
# [7] = dose: 100.0 mg/kg/injection, schedule: Q04DX003 (ip), vehicle: saline with Tween-80
# [8] = dose: 50.0 mg/kg/injection, schedule: Q01DX009 (ip), vehicle: Klucel (hydroxypropylcellulose) (HPC)
# [9] = dose: 100.0 mg/kg/injection, schedule: Q01DX009 (ip), vehicle: Klucel (hydroxypropylcellulose) (HPC)
# [10] = dose: 200.0 mg/kg/injection, schedule: Q01DX009 (ip), vehicle: Klucel (hydroxypropylcellulose) (HPC)
structure (smiles),measurement,setting,value
N#C[C@H](OC1OC(COC2OC(CO)C(O)C(O)C2O)C(O)C(O)C1O)c1ccccc1 (stereo partly drawn),T/C,"dose: 6.25 mg/kg/injection, schedule: Q01DX009 (oral), vehicle: water",91 % of control
same,T/C,"dose: 12.5 mg/kg/injection, schedule: Q01DX009 (oral), vehicle: saline",98 % of control
same,T/C,"dose: 12.5 mg/kg/injection, schedule: Q01DX009 (oral), vehicle: water",95 % of control
same,T/C,"dose: 25.0 mg/kg/injection, schedule: Q01DX009 (ip), vehicle: saline",100 % of control
same,T/C,"dose: 25.0 mg/kg/injection, schedule: Q01DX009 (ip), vehicle: water",105 % of control
same,T/C,"dose: 25.0 mg/kg/injection, schedule: Q01DX009 (oral), vehicle: saline",115 % of control
same,T/C,"dose: 25.0 mg/kg/injection, schedule: Q01DX009 (oral), vehicle: water",93 % of control
same,T/C,"dose: 50.0 mg/kg/injection, schedule: Q01DX009 (ip), vehicle: saline",100 % of control and 112 % of control
same,T/C,"dose: 50.0 mg/kg/injection, schedule: Q01DX009 (ip), vehicle: water",97 % of control
same,T/C,"dose: 50.0 mg/kg/injection, schedule: Q01DX009 (oral), vehicle: saline",118 % of control
same,T/C,"dose: 50.0 mg/kg/injection, schedule: Q01DX009 (oral), vehicle: suspension in saline",104 % of control
same,T/C,"dose: 50.0 mg/kg/injection, schedule: Q01DX009 (oral), vehicle: water",96 % of control
same,T/C,"dose: 100.0 mg/kg/injection, schedule: Q01DX009 (ip), vehicle: saline",104 % of control and 107 % of control
same,T/C,"dose: 100.0 mg/kg/injection, schedule: Q01DX009 (ip), vehicle: water",100 % of control
same,T/C,"dose: 100.0 mg/kg/injection, schedule: Q01DX009 (oral), vehicle: saline",101 % of control
same,T/C,"dose: 100.0 mg/kg/injection, schedule: Q01DX009 (oral), vehicle: suspension in saline",100 % of control and 107 % of control
same,T/C,"dose: 100.0 mg/kg/injection, schedule: Q01DX009 (oral), vehicle: water",105 % of control and 93 % of control
same,T/C,"dose: 200.0 mg/kg/injection, schedule: Q01DX009 (ip), vehicle: saline",100 % of control and 109 % of control
same,T/C,"dose: 200.0 mg/kg/injection, schedule: Q01DX009 (ip), vehicle: water",101 % of control
same,T/C,"dose: 200.0 mg/kg/injection, schedule: Q01DX009 (oral), vehicle: saline",100 % of control
same,T/C,"dose: 200.0 mg/kg/injection, schedule: Q01DX009 (oral), vehicle: water",102 % of control and 104 % of control
same,T/C,"dose: 400.0 mg/kg/injection, schedule: Q01DX009 (ip), vehicle: saline",102 % of control and 109 % of control
same,T/C,"dose: 400.0 mg/kg/injection, schedule: Q01DX009 (ip), vehicle: water",100 % of control
same,T/C,"dose: 400.0 mg/kg/injection, schedule: Q01DX009 (oral), vehicle: suspension in saline",100 % of control
same,T/C,"dose: 800.0 mg/kg/injection, schedule: Q01DX009 (ip), vehicle: saline",102 % of control and 108 % of control
same,T/C,"dose: 800.0 mg/kg/injection, schedule: Q01DX009 (ip), vehicle: water",102 % of control
CCN(CC)CCCC(C)Nc1cc(C)nc(Nc2nc3cc(Cl)c(Cl)cc3[nH]2)n1 (stereo not drawn),T/C,"dose: 2.5 mg/kg/injection, schedule: Q01DX009 (ip), vehicle: saline with Tween-80",100 % of control
same,T/C,"dose: 5.0 mg/kg/injection, schedule: Q01DX009 (ip), vehicle: saline with Tween-80",90 % of control
same,T/C,"dose: 10.0 mg/kg/injection, schedule: Q01DX009 (ip), vehicle: saline with Tween-80",100 % of control
CN(C)CCNC(=Cc1ccc2ccccc2[n+]1C)NCCN(C)C,T/C,"dose: 30.0 mg/kg/injection, schedule: Q01DX005 (ip), vehicle: saline",97 % of control
same,T/C,"dose: 60.0 mg/kg/injection, schedule: Q01DX005 (ip), vehicle: saline",101 % of control
CCCCCCCCCCCC(=O)OC1CCC2(C)C(=CCC3C2CCC2(C)C(C(C)CCC(CC)C(C)C)CCC32)C1 (stereo not drawn),T/C,[1],104 % of control
same,T/C,[2],95 % of control
same,T/C,[3],90 % of control
CC(C)CC(N)C(=O)NC(C)C(=O)NC(CC(C)C)C(=O)O (stereo not drawn) (H-Leu-Ala-Leu-OH; configuration not given here),T/C,"dose: 25.0 mg/kg/injection, schedule: Q01DX005 (ip), vehicle: saline",101 % of control
same,T/C,"dose: 50.0 mg/kg/injection, schedule: Q01DX005 (ip), vehicle: saline",102 % of control
same,T/C,"dose: 100.0 mg/kg/injection, schedule: Q01DX005 (ip), vehicle: saline",101 % of control
same,T/C,"dose: 200.0 mg/kg/injection, schedule: Q01DX005 (ip), vehicle: saline",100 % of control
O=C1C=CC(Nc2ccccc2[N+](=O)[O-])C1Nc1ccccc1[N+](=O)[O-] (stereo not drawn),T/C,[4],114 % of control
same,T/C,[5],113 % of control
O=C1NC(=O)C(Cc2ccccc2)(Cc2ccccc2)S1,T/C,[4],100 % of control
same,T/C,[5],103 % of control
same,T/C,"dose: 240.0 mg/kg/injection, schedule: Q01DX005 (ip), vehicle: saline with Tween-80",96 % of control
CCOc1ccc2nc([NH-])sc2c1.CCOc1ccc2nc([NH-])sc2c1.CCOc1ccc2nc([NH-])sc2c1.CCOc1ccc2nc([NH-])sc2c1.[Cl][Rh][Cl],T/C,"dose: 12.5 mg/kg/injection, schedule: Q01DX001 (ip), vehicle: DMSO",102 % of control
same,T/C,"dose: 25.0 mg/kg/injection, schedule: Q01DX001 (ip), vehicle: DMSO",102 % of control and 105 % of control
same,T/C,"dose: 50.0 mg/kg/injection, schedule: Q01DX001 (ip), vehicle: DMSO",107 % of control and 94 % of control
same,T/C,"dose: 100.0 mg/kg/injection, schedule: Q01DX001 (ip), vehicle: DMSO",113 % of control and 124 % of control and 91 % of control
Cc1cc(C(=O)N/N=C/c2cc(Cl)cc(Cl)c2O)c2cc(Br)ccc2n1,T/C,[1],91 % of control
same,T/C,[2],91 % of control
same,T/C,[3],93 % of control
O=c1c2ccccc2ncn1C12CC3CC(CC(C3)C1)C2,T/C,[6],105 % of control
same,T/C,"dose: 200.0 mg/kg/injection, schedule: Q04DX002 (ip), vehicle: Klucel (hydroxypropylcellulose) (HPC)",100 % of control
same,T/C,"dose: 400.0 mg/kg/injection, schedule: Q04DX002 (ip), vehicle: Klucel (hydroxypropylcellulose) (HPC)",100 % of control
S=c1nc[nH]c2c1ncn2CN1CCCCC1,T/C,[1],118 % of control
same,T/C,"dose: 66.0 mg/kg/injection, schedule: Q01DX009 (ip), vehicle: saline sonified",122 % of control
same,T/C,"dose: 150.0 mg/kg/injection, schedule: Q01DX009 (ip), vehicle: saline sonified",90 % of control
COc1cc(C)c2c(=O)c3c(oc2c1)C(=O)c1c(O)c(OC)cc(O)c1C3=O,T/C,"dose: 12.5 mg/kg/injection, schedule: Q01DX009 (ip), vehicle: saline with Tween-80",115 % of control
same,T/C,"dose: 25.0 mg/kg/injection, schedule: Q01DX009 (ip), vehicle: saline with Tween-80",108 % of control
same,T/C,[1],114 % of control
same,T/C,[2],115 % of control
same,T/C,[3],103 % of control
CSC(C#N)(Cc1ccccc1)N1CCOCC1 (stereo not drawn),T/C,[7],107 % of control
same,T/C,"dose: 200.0 mg/kg/injection, schedule: Q04DX003 (ip), vehicle: saline with Tween-80",103 % of control
same,T/C,"dose: 400.0 mg/kg/injection, schedule: Q04DX003 (ip), vehicle: saline with Tween-80",103 % of control
O=C(Nc1ccc(Cc2ccc(NC(=O)Nc3cccnc3)cc2)cc1)Nc1cccnc1,T/C,[8],101 % of control
same,T/C,[9],94 % of control
same,T/C,[10],88 % of control
O=[N+]([O-])c1ccc(/C(=C/c2ccc(F)cc2)S(=O)(=O)c2ccccc2)o1,T/C,"dose: 50.0 mg/kg/injection, schedule: Q01DX009 (ip), vehicle: suspension in saline",97 % of control
same,T/C,"dose: 100.0 mg/kg/injection, schedule: Q01DX009 (ip), vehicle: suspension in saline",88 % of control
COc1cccc2c1C(=O)c1c(O)c3c(c(O)c1C2=O)C[C@@](O)(C(O)CO)C[C@@H]3OC1CC(NC(=O)C(F)(F)F)C(O)C(C)O1 (stereo partly drawn),T/C,"dose: 25.0 mg/kg/injection, schedule: Q01DX009 (ip), vehicle: other",151 % of control and 152 % of control
CN(C)c1ccc([N+]([O-])=NC#N)cc1,T/C,"dose: 25.0 mg/kg/injection, schedule: Q04DX003 (ip), vehicle: saline with Tween-80",93 % of control
same,T/C,"dose: 50.0 mg/kg/injection, schedule: Q04DX003 (ip), vehicle: saline with Tween-80",95 % of control
same,T/C,[7],92 % of control
COc1ccc(NC(=O)c2sc(SC)nc2N)cc1,T/C,[8],100 % of control
same,T/C,[9],98 % of control
same,T/C,[10],97 % of control
O=[N+]([O-])CC(OCCCCCO)C(Cl)(Cl)Cl (stereo not drawn),T/C,[1],95 % of control
same,T/C,[2],100 % of control
same,T/C,[3],86 % of control
CC(/C=C/c1ccccc1)=N\NC(=S)Nc1ccc(Br)cc1,T/C,[6],97 % of control
S=C1N(c2ccc(Br)cc2)C2=Nc3ccccc3SC(=C2N=Nc2ccccc2)N1c1ccc(Cl)cc1,T/C,"dose: 50.0 mg/kg/injection, schedule: Q01DX005 (ip), vehicle: saline with Tween-80",94 % of control
same,T/C,"dose: 100.0 mg/kg/injection, schedule: Q01DX005 (ip), vehicle: saline with Tween-80",90 % of control
same,T/C,"dose: 200.0 mg/kg/injection, schedule: Q01DX005 (ip), vehicle: saline with Tween-80",93 % of control
